From patent US8993559B2, “Use of ibogamine congeners for treating obesity” (Albany Medical College, priority 2008, dated 2015)

What was measured:
[1] = active metabolite; cited from earlier work
[2] = tested on: rats; assay: Drug self-administration and water-reinforced responding in rats (earlier studies); assay type: in vivo, rat
Method: Other work has extended the “anti-addictive” effect of 18-MC to oral intake of ethanol. In all cases, these effects last for at least 24 hours. […] Unlike 18-MC, ibogaine and many other iboga alkaloid congeners (approximately 30 tested) decrease responding for water as well as for drugs. And it was precisely this unique specificity that led to development and study of 18-MC.

| Molecule | presence in plasma as metabolite of 18-MC [1] | responding for drugs ([2]; rat, in vivo) | responding for water (non-drug reinforcer) ([2]; same doses that decrease drug self-administration) |
| --- | --- | --- | --- |
| COC(=O)[C@@]12C[C@H]3C[C@H](CCO)[C@@H]1N(CCc1c2[nH]c2ccccc12)C3 [18-hydroxycoronaridine] | present in plasma in low concentrations |  |  |
| ibogaine [reference compound] |  | decrease | decrease |
